Values joined by “and” are separate entries in the source; they are usually repeats but may differ in a detail not shown here. Equal values may be shown once.
B1: vanB: vanB oligonucleotide solution: SEQ ID NOS: 103, 108, and 66 (nucleic acid)
DNA 1: TTACCTACCCTGTCTTTGTGAA
DNA 2: CAGGTTCGTCCTTTGGCGTAACCA
DNA 3: GCTCAATTAAGATTTTTCCATCATATTGTC
modifications: chemistry not given here
B2: vanA: vanA oligonucleotide solution: SEQ ID NO: 1, 2, and 5 (nucleic acid)
DNA 1: TTGTGCGGTATTGGGAAACAGT
DNA 2: TGATTTGGTCCACCTCGCCAACAACTAACGC
DNA 3: CTCGACTTCCTGATGAATACGAAAGATTC
modifications: chemistry not given here

Key:
VanC phenotype (vanC) = conditions: allele vanC; cited from earlier work
VanB phenotype (vanB) = conditions: allele vanB; cited from earlier work
VanG phenotype (vanG) = conditions: allele vanG; cited from earlier work
VanE phenotype (vanE) = conditions: allele vanE; cited from earlier work
VanD phenotype (vanD) = conditions: allele vanD; cited from earlier work
VanA phenotype (vanA) = conditions: allele vanA; cited from earlier work
[1] = system: E. faecalis vanB synthetic construct; assay: Real-time PCR amplification of vanB synthetic construct; conditions: Input synthetic construct (vanB); oligos 400 nM each; ABI 7500, 50 cycles
Description: (§1) The oligonucleotide sequences listed in Table 5 were tested for their ability to amplify their intended target sequences. About 25 μL PCRs were formulated using iQTM Supermix for qPCR (BioRad) and oligos at a final concentration of 400 nM each.
(§2) Genomic DNA isolated from E. faecium (ATCC No. 5159, strain MMC4, vanA) and E. faecalis (ATCC No. 700802, strain V583, vanB) were loaded into real-time PCRs using oligonucleotide solutions specific for vanA and vanB. The specificity of the oligonucleotide solutions was assessed by attempting to amplify E. faecalis (vanB) gDNA with vanA oligos and E. faecium (vanA) gDNA with vanB oligos. Amplification plots are illustrated in FIGS. 1 and 2, which show detection of vanA and vanB. Synthetic constructs encoding the vanA and vanB targets were amplified and compared to duplicate reactions where E. faecium (ATCC No. 5159, strain MMC4, vanA) and E. faecalis (ATCC No. 700802, strain V583, vanB) gDNA was amplified.
(§3) PCRs were run on the ABI 7500 with the following Thermal protocol: • 95° C. 5 minute, initial denaturation • 50 cycles of: • 95° C. 15 sec, denaturation, and • 60° C. 1 min, annealing/extension […]

[2] = system: E. faecalis (ATCC No. 700802, strain V583, vanB) gDNA; assay: Real-time PCR on E. faecalis (vanB) gDNA; conditions: Input E. faecalis (ATCC No. 700802, strain V583, vanB) gDNA; duplicate reactions; oligos 400 nM each
Description: as §1, §2, §3

[3] = system: E. faecium (ATCC No. 5159, strain MMC4, vanA) gDNA; assay: Real-time PCR on E. faecium (vanA) gDNA; conditions: Input E. faecium (ATCC No. 5159, strain MMC4 vanA) gDNA; duplicate reactions; oligos 400 nM each
Description: as §1, §2, §3

[4] = system: E. faecium vanA synthetic construct; assay: Real-time PCR amplification of vanA synthetic construct; conditions: Input synthetic construct (vanA); oligos 400 nM each; ABI 7500, 50 cycles
Description: as §1, §2, §3

Molecule	MIC (VanC phenotype (vanC))	MIC (VanB phenotype (vanB))	MIC (VanG phenotype (vanG))	MIC (VanE phenotype (vanE))	MIC (VanD phenotype (vanD))	MIC (VanA phenotype (vanA))	Ct [1]	Ct [2]	Ct [3]	Ct [4]
CN[C@H](CC(C)C)C(=O)N[C@H]1C(=O)N[C@@H](CC(N)=O)C(=O)N[C@H]2C(=O)N[C@H]3C(=O)N[C@H](C(=O)N[C@H](C(=O)O)c4cc(O)cc(O)c4-c4cc3ccc4O)[C@H](O)c3ccc(c(Cl)c3)Oc3cc2cc(c3O[C@@H]2O[C@H](CO)[C@@H](O)[C@H](O)[C@H]2O[C@H]2C[C@](C)(N)[C@H](O)[C@H](C)O2)Oc2ccc(cc2Cl)[C@H]1O [vancomycin]	2-32 (low) μg/mL	4-1024 (can be high) μg/mL	12-16 (low) μg/mL	16 (low) μg/mL	128 (moderate) μg/mL	–	–	–	–	–
teicoplanin	≦0.5 (sensitive) μg/mL	≦0.5 (sensitive) μg/mL	0.5 (sensitive) μg/mL	0.5 (sensitive) μg/mL	4 (moderate) μg/mL	16-512 (high) μg/mL	–	–	–	–
B1	–	–	–	–	–	–	24.04	21.85 and 21.53	UND	–
B2	–	–	–	–	–	–	–	UND	19.67 and 19.80	23.36
